How the values were obtained:
MCF-7 cells = experiment: Antiproliferative assay, MCF-7; format: cell-based; conditions: Homo sapiens, MCF7; MCF-7 breast cancer cell line; read-out: Antiproliferative activity IC50 ± SEM, MCF-7
Protocol: (§1) 4.2.2. Assay for antiproliferative effect
(§2) To explore the antiproliferative potential of compounds propidium iodide fluorescence assay was performed using different cell lines such as Panc-1 (pancreas cancer cell line), MCF-7 (breast cancer cell line), HT-29 (colon cancer cell line) and A-549 (epithelial cancer cell line), respectively. To calculate the total nuclear DNA, a fluorescent dye (propidium iodide, PI) is used which can attach to the DNA, thus offering a quick and precise technique. PI cannot pass through the cell membrane and its signal intensity can be considered as directly proportional to quantity of cellular DNA. Cells whose cell membranes are damaged or have changed permeability are counted as dead ones. The assay was performed by seeding the cells of different cell lines at a density of 3000-7500 cells/well (in200μl medium) in culture plates followed by incubation for 24h at 37 °C in humidified 5%CO2/95% air atmospheric conditions. The medium was removed; the compounds were added to the plates at 10 μM concentrations (in 0.1% DMSO) in triplicates, followed by incubation for 48h. DMSO (0.1%) was used as control. After incubation, medium was removed followed by the addition of PI (25 μl, 50μg/mL in water/medium) to each well of the plates. At - 80 °C, the plates were allowed to freeze for 24 h, followed by thawing at 25 °C. A fluorometer (Polar-Star BMG Tech) was used to record the readings at excitation and emission wavelengths of 530 and 620 nm for each well. The percentage cytotoxicity of compounds was calculated using […]
(§3) Where ATC= Absorbance of treated cells and AC= Absorbance of control. Erlotinib was used as positive control in the assay.

iNOS = biological target: T1, iNOS (Homo sapiens, UniProt P35228); experiment: NOS inhibition assay (L-citrulline, fluorometric detection), iNOS; format: biochemical; conditions: for inhibition at 1 µM: compound at 1 µM; for eNOS/iNOS selectivity: ratio of eNOS IC50 to iNOS IC50
T1 construct: purchased Enzo Life Sciences, Inc. (New York, USA)
Protocol: The investigated compounds were tested at 1 µM against the iNOS and 10 µM against the eNOS to determine their isoform selectivity. Because of its critical role in cardiovasculature, inhibiting the constitutive enzyme eNOS should be avoided.
Refer to Supplementary Appendix SA1 for more details.
4.2.4. NOS inhibition assay
Recombinant human iNOS was purchased from Enzo Life Sciences, Inc. (New York, USA).
Recombinant bovine eNOS was purchased from Cayman Chemical (Ann Arbor, USA). To measure iNOS activity, 10 μL of enzyme stock solution were added to 80 μL of 2-[4-(2-hydroxyethyl) piperazin-1-yl]ethanesulfonic acid (HEPES) buffer pH = 7.4, 100 mM, containing 0.1 mM CaCl2, 1 mM D,L-dithiothreitol (DTT), 0.5 mg/mL BSA, 10 μM flavin mononucleotide (FMN), 10 μM flavin adenine dinucleotide (FAD), 30 μM tetrahydrobiopterin (BH4), 10 μg/mL calmodulin (CaM), 10 μM L-Arg. For the eNOS activity evaluation, 25 μL of the enzyme stock solution were added to 65 μL of HEPES buffer containing 2 mM CaCl2 and the same cofactors […]
μM) were added to the enzyme assay solution, followed by pre -incubation of 15 min at 37 ◦C.
Each reaction was initiated by the addition of 10 μL of NADPH 7.5 mM, carried out at 37 ◦C for 30 min, and stopped by adding 500 μL of ice -cold CH3CN. The mixture was brought to dryness under vacuum and eventually stored at – 20 ◦C, before the HPLC analysis. […]

A-549 cells = experiment: Antiproliferative assay, A-549; format: cell-based; conditions: Homo sapiens, A549; A-549 lung cancer cell line; read-out: Antiproliferative activity IC50 ± SEM, A-549
Protocol: as §1, §2, §3

[1] = Cell viability assay (MTT) on normal mammary epithelial cells; format: cell-based, human; conditions: human, MCF-10A normal mammary gland epithelial cells, MCF-10A normal cells, 4 days incubation
Protocol: This test investigates the effects of the new compounds 3–16 on normal cell lines to determine their safety. The normal human mammary gland epithelial (MCF-10 A) cell line was used to test the viability of the tested compounds. After 4 days of incubation on MCF-10 A cells within 50 µM of each investigated compound, cell viability was determined using the MTT assay ([Gomaa et al., 2020]; [Marzouk et al., 2020]).
The normal human mammary gland epithelial (MCF-10A) cell line was used to test the viability of the tested compounds. After 4 days of incubation on MCF-10A cells within 50 µM of each investigated compound, cell viability was determined using the MTT assay ([Gomaa et al., 2020]; [Marzouk et al., 2020]). Refer to Supplementary Appendix SA1 (supp. File) for more details.
4.2. Biological evaluation
4.2.1 Cell Viability assay (MTT assay)
MTT assay was performed to investigate the effect of the synthesized compounds on mammary epithelial cells (MCF-10A). The cells were propagated in medium consisting of Ham's F-12 medium/ Dulbecco's modified Eagle's medium (DMEM) (1:1) supplemented with 10% foetal calf serum, 2 mM glutamine, insulin (10 μg/mL), hydrocortisone (500 ng/mL) and epidermal growth factor (20 ng/mL). Trypsin ethylenediamine tetra acetic acid (EDTA) was used to passage the cells after every 2-3 days. 96-well flat-bottomed cell culture plates were used to seed the cells at a density of 10^4 cells mL-1. The medium was aspirated from all the wells of culture plates after 24 h followed by the addition of synthesized compounds (in 200 μL medium to yield a final concentration of 0.1% (v/v) dimethyl sulfoxide) into individual wells of the plates. Four wells were designated to a single compound. The plates were allowed to incubate at 37°C for 96 h. Afterwards, the medium was aspirated and 3-[4,5-dimethylthiazol-2-yl]-2,5-diphenyltetrazolium bromide (MTT) (0.4 mg/mL) in medium was added to each well and subsequently incubated for 3 h. The medium was aspirated and 150 μL dimethyl sulfoxide (DMSO) was added to each well. The plates were vortexed followed by the measurement of absorbance at 540 nm on a microplate reader. The results were presented as inhibition (%) of proliferation in contrast to controls comprising 0.1%

Row | SMILES | IC50 (MCF-7 cells) | inhibition at 1 µM (iNOS) | IC50 (A-549 cells) | viability at 4 days, 50 µM [1] | IC50 (iNOS) | eNOS/iNOS selectivity (iNOS)
1 | CCc1c2cc(Cl)ccc2n2c(C)c(C(=O)NCc3ccccc3)[nH]c(=O)c12 [Compound 7, N-benzyl-8-chloro-10-ethyl-4-methyl-1-oxo-1,2-dihydropyrazino [1,2-a]indole-3-carboxamide] | 30 ± 3 nM | 73 ± 2% | 28 ± 2 nM | 88% |  | 
2 | CCc1c2cc(Cl)ccc2n2c(C)c(C(=O)OCc3ccccc3)[nH]c(=O)c12 [Compound 5, benzyl 8-chloro-10-ethyl-4-methyl-1-oxo-1,2-dihydropyrazino [1,2-a]indole-3-carboxylate] | 34 ± 3 nM | 62 ± 2% | 31 ± 3 nM | 90% |  | 
3 | CCc1c2cc(Cl)ccc2n2cc(Cc3ccccc3)n(C)c(=O)c12 [Compound 12, 3-Benzyl-8-chloro-10-ethyl-2-methylpyrazino[1,2-a]indol-1(2H)-one] | 25 ± 2 nM | 87 ± 3% | 23 ± 2 nM | 89% | 75 ± 2 nM | >670
4 | CCc1c2cc(Cl)ccc2n2cc(-c3ccccc3)[nH]c(=O)c12 [Compound 16, 8-Chloro-10-ethyl-3-phenylpyrazino [1,2-a]indol-1(2H)-one] | 28 ± 2 nM | 81 ± 3% | 25 ± 2 nM | 91% | 98 ± 3 nM | >510

From paper PMC11414412, “Design and synthesis new indole-based aromatase/iNOS inhibitors with apoptotic antiproliferative activity” (Frontiers in Chemistry, 2024)
